PubChem BioAssay (NCI)
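1) Cells in 96-well plates. 2) Compound, 48 h, 5 concentrations. 3) Linear interpolation between surrounding doses. 4) Unreached endpoint = highest concentration. At the TGI there is no net growth.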

Tests used:
Assay in all cases: NCI tumour cell line growth inhibition, 48 h
U251 CNS = tested on: U251 CNS
K-562 leukemia = tested on: K-562 leukemia
SN12C renal = tested on: SN12C renal
COLO 205 colon = tested on: COLO 205 colon
MDA-N = tested on: MDA-N
DU-145 prostate = tested on: DU-145 prostate
NCI/ADR-RES ovarian = tested on: NCI/ADR-RES ovarian
SF-268 CNS = tested on: SF-268 CNS
OVCAR-5 ovarian = tested on: OVCAR-5 ovarian
HCT-15 colon = tested on: HCT-15 colon
LOX IMVI melanoma = tested on: LOX IMVI melanoma
SK-MEL-2 melanoma = tested on: SK-MEL-2 melanoma
EKVX NSCLC = tested on: EKVX NSCLC
A498 renal = tested on: A498 renal
M14 melanoma = tested on: M14 melanoma
SK-OV-3 ovarian = tested on: SK-OV-3 ovarian
HCC-2998 colon = tested on: HCC-2998 colon
HL-60(TB) leukemia = tested on: HL-60(TB) leukemia
CCRF-CEM leukemia = tested on: CCRF-CEM leukemia
TK-10 renal = tested on: TK-10 renal

Compound	TGI (U251 CNS) [µM]	TGI (K-562 leukemia) [µM]	TGI (SN12C renal) [µM]	TGI (COLO 205 colon) [µM]	TGI (MDA-N) [µM]	TGI (DU-145 prostate) [µM]	TGI (NCI/ADR-RES ovarian) [µM]	TGI (SF-268 CNS) [µM]	TGI (OVCAR-5 ovarian) [µM]	TGI (HCT-15 colon) [µM]	TGI (LOX IMVI melanoma) [µM]	TGI (SK-MEL-2 melanoma) [µM]	TGI (EKVX NSCLC) [µM]	TGI (A498 renal) [µM]	TGI (M14 melanoma) [µM]	TGI (SK-OV-3 ovarian) [µM]	TGI (HCC-2998 colon) [µM]	TGI (HL-60(TB) leukemia) [µM]	TGI (CCRF-CEM leukemia) [µM]	TGI (TK-10 renal) [µM]
O=C(c1cc2ccccc2[nH]1)N1C2CCC1CN(CCOC(c1ccc(F)cc1)c1ccc(F)cc1)CC2 (centres undefined)	> 100	> 100	> 100	> 100	> 100	> 100	> 100	> 100	> 100	> 100	> 100	> 100	> 100	> 100	> 100	> 100	> 100	> 100	> 100	> 100
O=C(O)CSCc1cc2c(O)c(c1)Cc1cc(CSCC(=O)O)cc(c1O)Cc1cc(CSCC(=O)O)cc(c1O)Cc1cc(CSCC(=O)O)cc(c1O)C2	> 100	> 100	> 100	> 100	> 100	> 100	> 100	> 100	> 100	> 100	> 100	> 100	> 100	> 100	> 100	> 100	> 100	> 100	> 100	> 100
O=C(c1ccccc1)c1ccc(N2C(=O)/C(=C/Cc3ccco3)N=C2c2ccccc2)c(N2C(=O)/C(=C/Cc3ccco3)N=C2c2ccccc2)c1	43.8	> 100	> 100	> 100	> 100	96.6	> 100	> 100	> 100	> 100	58.3	58.6	> 100	> 100	> 100	83	> 100	45.7	53.5	> 100
CN(C)CCNc1nc2ccccc2c2c1CCCC2	37	39.9	89.2	> 100	33.9	> 100	> 100	> 100	> 100	> 100	34.7	32.5	> 100	35.8	32.5	42.9	25.6	32.3		29.7
c1ccc2c(CN3CCN(Cc4c[nH]c5ccccc45)CC3)c[nH]c2c1	29.3	39.7	41.9	20.8	29.1	40.7	58	36	36.4	44.4	30.6	31.5	39.4	27.8	29.1	61.8	3.29	39.3	> 100	29.1
Cc1sc2[nH]c(=O)oc(=O)c2c1C	> 100	> 100	> 100	> 100	> 100	> 100	> 100	> 100	> 100	> 100	> 100	> 100	> 100	> 100	> 100	> 100	> 100	> 100	> 100	> 100
